Measured values as given in patent publication US6479435B1, “Diaryl ethers and processes for their preparation and herbicidal and desiccant compositions containing them” (ISK Americas Incorporated, priority 1997, dated 2002).

Tests used:
Assay type in all cases: in vivo
Grass Weeds = test: Post-emergent application in combination with other herbicides, percent control of grass weeds; conditions: 31.25 g ai/ha
Protocol: All test compounds were dissolved in acetone and applied to the test units in a volume of 187 l/ha. Test materials were applied at rates ranging from 125 g ai/ha to 1000 g ai/ha using a track sprayer equipped with a TJ8001E even flow flat fan spray nozzle. Plants were arranged on a shelf so that the top of the canopy (post-emerge) or top of the soil surface (pre-emerge) was 40-45 cm below the nozzle. Pressurized air was used to force the test solution through the nozzle as it was mechanically advanced (via electrically driven chain drive) over the top of all test plants/pots. This application simulates a typical commercial field herbicide application. In the post-emerge test, a commercial non-ionic surfactant was also included (0.25% v/v) to enhance wetting of the leaf surfaces Qf target plants at rates ranging from 63 g ai/ha to 1000 g ai/ha. For post-emerge tests, seeds were planted 8-21 days prior to the test to allow emergence and good foliage development prior to application of the test substances. At the time of the post-emerge application, plants of all species were usually at the 2-3 leaf stage of development. Post-emerge test units were always bottom-watered. At 14 days after application of the test materials, phytotoxicity ratings were recorded. A rating scale of 0-100 was used as previously described in Research Methods in Weed Science, 2nd edition, B. Truelove, Ed., Southern Weed Science Society, Auburn University, Auburn, Ala., 1977. Briefly, “0” corresponds to no damage and “100” corresponds to complete death of all plants in the test unit. This scale was used both to determine efficacy against weed species and damage to crop species. Herbicide activity data for various compounds of this invention, which are shown by compound number in Tables 1-9, are shown in Tables 13 and 14. […] (Note: Weed species abbreviations are from the Composite List of Weeds published by the Weed Science Society of America, 1989.) The following examples illustrate the utility of combinations of compounds of this invention and existing herbicides. The methods used are identical to those for the application of single compounds except the commercial formulations of existing herbicides were added to the spray mixture in the appropriate amounts before spraying. Combination Example 3. Post-emergent Application of Compound 9-1 with Nicosulfuron Combination Example 4. Postemergent Application of Compound 9-1 with Pyridate

Broadleaf Weeds [1] = test: Pre-emergent application in combination with other herbicides, percent control of broadleaf weeds; conditions: 62.5 g ai/ha
Protocol: All plants were grown in 10 cm square plastic pots which were filled with a sandy loam soil mix. For preemerge tests, seeds were planted one day prior to application of the test compounds. Immediately after application, test units of the pre-emerge applications were watered at the soil surface to incorporate the test materials. Subsequently, these test units were bottom-watered.
All test compounds were dissolved in acetone and applied to the test units in a volume of 187 l/ha. […] Plants were arranged on a shelf so that the top of the canopy (post-emerge) or top of the soil surface (pre-emerge) was 40-45 cm below the nozzle. Pressurized air was used to force the test solution through the nozzle as it was mechanically advanced (via electrically driven chain drive) over the top of all test plants/pots. This application simulates a typical commercial field herbicide application.
At 14 days after application of the test materials, phytotoxicity ratings were recorded. A rating scale of 0-100 was used as previously described in Research Methods in Weed Science, 2nd edition, B. Truelove, Ed., Southern Weed Science Society, Auburn University, Auburn, Ala., 1977. Briefly, “0” corresponds to no damage and “100” corresponds to complete death of all plants in the test unit. This scale was used both to determine efficacy against weed species and damage to crop species. Herbicide activity data for various compounds of this invention, which are shown by compound number in Tables 1-9, are shown in Tables 13 and 14.
(Note: Weed species abbreviations are from the Composite List of Weeds published by the Weed Science Society of America, 1989.)
The following examples illustrate the utility of combinations of compounds of this invention and existing herbicides. The methods used are identical to those for the application of single compounds except the commercial formulations of existing herbicides were added to the spray mixture in the appropriate amounts before spraying. […]
Combination Example 2. Pre-emergent Application of Compound 9-1 with Dimethenamid

Broadleaf Weeds [2] = test: Post-emergent application in combination with other herbicides, percent control of broadleaf weeds; conditions: 31.25 g ai/ha
Protocol: All test compounds were dissolved in acetone and applied to the test units in a volume of 187 l/ha. Test materials were applied at rates ranging from 125 g ai/ha to 1000 g ai/ha using a track sprayer equipped with a TJ8001E even flow flat fan spray nozzle. Plants were arranged on a shelf so that the top of the canopy (post-emerge) or top of the soil surface (pre-emerge) was 40-45 cm below the nozzle. Pressurized air was used to force the test solution through the nozzle as it was mechanically advanced (via electrically driven chain drive) over the top of all test plants/pots. This application simulates a typical commercial field herbicide application. […] For post-emerge tests, seeds were planted 8-21 days prior to the test to allow emergence and good foliage development prior to application of the test substances. At the time of the post-emerge application, plants of all species were usually at the 2-3 leaf stage of development. Post-emerge test units were always bottom-watered. At 14 days after application of the test materials, phytotoxicity ratings were recorded. A rating scale of 0-100 was used as previously described in Research Methods in Weed Science, 2nd edition, B. Truelove, Ed., Southern Weed Science Society, Auburn University, Auburn, Ala., 1977. Briefly, “0” corresponds to no damage and “100” corresponds to complete death of all plants in the test unit. This scale was used both to determine efficacy against weed species and damage to crop species. Herbicide activity data for various compounds of this invention, which are shown by compound number in Tables 1-9, are shown in Tables 13 and 14. […] (Note: Weed species abbreviations are from the Composite List of Weeds published by the Weed Science Society of America, 1989.) The following examples illustrate the utility of combinations of compounds of this invention and existing herbicides. The methods used are identical to those for the application of single compounds except the commercial formulations of existing herbicides were added to the spray mixture in the appropriate amounts before spraying. Combination Example 3. Post-emergent Application of Compound 9-1 with Nicosulfuron Combination Example 4. Postemergent Application of Compound 9-1 with Pyridate

Nn1c(C(F)(F)F)cc(=O)n(-c2cc(Oc3ncccc3[N+](=O)[O-])c(Cl)cc2F)c1=O [Compound 9-1, 1-amino-3-[4-chloro-2-fluoro-5-(3-nitro-2-pyridyloxy)phenyl]-6-trifluoromethyl-1,2,3,4-tetrahydropyrimidine-2,4-dione]
Percent Control of Grass Weeds DIGSA (Grass Weeds): 10% | Percent Control of Grass Weeds DIGSA (Grass Weeds; Combination Example 4): 10% | Percent Control of Grass Weeds ECHCG (Grass Weeds): 0% | Percent Control of Grass Weeds ECHCG (Grass Weeds; Combination Example 4): 0% | Percent Control of Grass Weeds SETVI (Grass Weeds): 10% | Percent Control of Grass Weeds SETVI (Grass Weeds; Combination Example 4): 10% | Percent Control of Grass Weeds SORHA (Grass Weeds): 10% | Percent Control of Grass Weeds SORHA (Grass Weeds; Combination Example 4): 10% | Percent Control of Broadleaf Weeds ABUTH (Broadleaf Weeds [1]): 95% | Percent Control of Broadleaf Weeds ABUTH (Broadleaf Weeds [1]; Combination Example 2): 95% | Percent Control of Broadleaf Weeds AMARE (Broadleaf Weeds [1]): 100% | Percent Control of Broadleaf Weeds AMARE (Broadleaf Weeds [1]; Combination Example 2): 100% | Percent Control of Broadleaf Weeds AMBEL (Broadleaf Weeds [1]): 40% | Percent Control of Broadleaf Weeds AMBEL (Broadleaf Weeds [1]; Combination Example 2): 40% | Percent Control of Broadleaf Weeds CASOB (Broadleaf Weeds [1]): 10% | Percent Control of Broadleaf Weeds CASOB (Broadleaf Weeds [1]; Combination Example 2): 10% | Percent Control of Broadleaf Weeds CHEAL (Broadleaf Weeds [1]): 100% | Percent Control of Broadleaf Weeds CHEAL (Broadleaf Weeds [1]; Combination Example 2): 100% | Percent Control of Broadleaf Weeds IPOHE (Broadleaf Weeds [1]): 50% | Percent Control of Broadleaf Weeds IPOHE (Broadleaf Weeds [1]; Combination Example 2): 50% | Percent Control of Broadleaf Weeds ABUTH (Broadleaf Weeds [2]): 60% | Percent Control of Broadleaf Weeds ABUTH (Broadleaf Weeds [2]; Combination Example 4): 60% | Percent Control of Broadleaf Weeds AMARE (Broadleaf Weeds [2]): 60% | Percent Control of Broadleaf Weeds AMARE (Broadleaf Weeds [2]; Combination Example 4): 60% | Percent Control of Broadleaf Weeds AMBEL (Broadleaf Weeds [2]): 40% | Percent Control of Broadleaf Weeds AMBEL (Broadleaf Weeds [2]; Combination Example 4): 40% | Percent Control of Broadleaf Weeds CASOB (Broadleaf Weeds [2]): 0% | Percent Control of Broadleaf Weeds CASOB (Broadleaf Weeds [2]; Combination Example 4): 0% | Percent Control of Broadleaf Weeds CHEAL (Broadleaf Weeds [2]): 90% | Percent Control of Broadleaf Weeds CHEAL (Broadleaf Weeds [2]; Combination Example 4): 90% | Percent Control of Broadleaf Weeds IPOHE (Broadleaf Weeds [2]): 80% | Percent Control of Broadleaf Weeds IPOHE (Broadleaf Weeds [2]; Combination Example 4): 80%
